Data: patent US20170296505A1, “LONG-CHAIN CARBOXYCHROMANOLS AND ANALOGS FOR USE AS ANTI-INFLAMMATORY AGENTS” (Purdue Research Foundation, priority 2008, published 2017)
Like-named read-outs stand apart in the source and are kept apart here. Each block holds one compound with its values, some of them ahead of it.

Experiments:
[1] = target: T1, ovine COX-1 (Ovis aries, UniProt P05979); test: COX-1 activity assay using purified enzyme; assay type: biochemical
T1 construct: purchased Cayman Chemicals (Ann Arbor, Mich.)
T1 sequence (P05979 25-600): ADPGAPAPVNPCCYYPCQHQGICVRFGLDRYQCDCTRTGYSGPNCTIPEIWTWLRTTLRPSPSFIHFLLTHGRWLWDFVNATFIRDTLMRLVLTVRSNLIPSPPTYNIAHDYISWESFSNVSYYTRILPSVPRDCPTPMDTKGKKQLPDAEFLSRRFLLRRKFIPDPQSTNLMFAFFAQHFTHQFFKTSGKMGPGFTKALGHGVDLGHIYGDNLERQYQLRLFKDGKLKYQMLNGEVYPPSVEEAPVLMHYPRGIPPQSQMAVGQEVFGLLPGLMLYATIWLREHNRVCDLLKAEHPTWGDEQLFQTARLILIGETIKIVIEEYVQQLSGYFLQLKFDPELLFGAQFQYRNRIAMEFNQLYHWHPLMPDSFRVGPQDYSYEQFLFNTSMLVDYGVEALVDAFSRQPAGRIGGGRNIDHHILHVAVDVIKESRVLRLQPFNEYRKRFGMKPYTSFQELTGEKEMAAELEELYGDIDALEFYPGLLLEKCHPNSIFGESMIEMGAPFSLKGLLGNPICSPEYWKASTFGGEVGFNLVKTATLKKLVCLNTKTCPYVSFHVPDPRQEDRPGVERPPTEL
Method: (§1) COX-1 and COX -2 activity assay using purified enzymes—The enzymatic reactions were performed in 0.1M Tris (pH 8.0), in the presence of 5 mM EDTA, 2 mM phenol, and 1 μM heme. […] Enzymatic reactions were initiated by addition of AA at a final concentration of 5 μM for 2 min. The reaction was stopped by addition of 0.1 M HCl. Stannous chloride in 0.1 M HCl was then added to reduce PGG2 and PGH2 to PGF2a. After addition of 0.5 vol of […] NaCl, prostaglandins formed in the reaction were extracted using 2.5 vol of ethyl acetate and the organic layer was completely dried under N2. PGF2a, and PGE2 were quantified using ELISA assays from Cayman Chemicals.

[2] = target: T2, COX-2 (Homo sapiens, UniProt P35354); test: COX-2 activity assay using purified enzyme; assay type: biochemical; parameters: purchased Cayman Chemicals (Ann Arbor, Mich.); details: at 250 μM
T2 sequence (P35354 18-604): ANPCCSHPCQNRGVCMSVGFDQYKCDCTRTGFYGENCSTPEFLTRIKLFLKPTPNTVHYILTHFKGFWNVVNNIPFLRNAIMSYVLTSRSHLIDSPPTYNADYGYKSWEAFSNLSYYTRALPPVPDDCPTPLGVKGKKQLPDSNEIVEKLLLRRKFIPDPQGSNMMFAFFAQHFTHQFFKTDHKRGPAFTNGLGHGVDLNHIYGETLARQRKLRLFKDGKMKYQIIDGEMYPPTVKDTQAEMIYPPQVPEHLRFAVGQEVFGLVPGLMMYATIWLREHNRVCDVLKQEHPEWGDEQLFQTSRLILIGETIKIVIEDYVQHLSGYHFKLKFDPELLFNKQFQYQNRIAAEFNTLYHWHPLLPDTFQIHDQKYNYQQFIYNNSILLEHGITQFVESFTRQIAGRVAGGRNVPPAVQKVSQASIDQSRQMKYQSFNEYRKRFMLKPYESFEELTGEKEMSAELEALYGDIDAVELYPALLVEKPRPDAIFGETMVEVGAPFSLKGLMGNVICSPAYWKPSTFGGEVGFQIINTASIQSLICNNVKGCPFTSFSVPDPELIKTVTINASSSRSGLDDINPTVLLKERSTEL
Method: as §1

[3] = tested on: PGE2 in IL-1β treated A549 cells; test: PGE2 generation during chronic IL-1β treatment; assay type: cell-based, human; details: for IC50: read-out: concentration to cause 50% inhibition of PGE2, in the presence of exogenous AA (5 μM, 5 min) after co-incubation with IL-1β
Method: (§2) A549 cells were pre-incubated with different concentrations of tocopherols in the presence or absence of 1 μM sesamin for 15 h, and then treated with IL-1β (2 ng/mL) for 24 h. PGE2 in the cell-culture media was measured by ELISA assays. Results are the averages of three independent experiments and expressed as Mean±SEM.
as §2, with “tocotrienols” for “tocopherols”
PGE2 generation during chronic IL-1β treatment—2.5−3×10^5 A549 cells per well were seeded in RPMI-1640 with 10% of FBS and allowed to attach overnight in a 24-well plate. Vitamin E stock solutions were initially made in DMSO and then diluted in 10 mg/mL of bovine serum albumin. Confluent cells were incubated in DMEM containing 1% FBS with DMSO (control) or vitamin E forms for 14-16 h and then 2 ng/ml of IL-1β was introduced for 24 hours. The medium was then collected and PGE2 accumulation was measured using ELISA assay from Cayman Chemicals (Ann Arbor, Mich.).
Statistical analysis—The unpaired student's t-test was used in the statistical analysis. All results are expressed as mean±SD. Activation of human lung epithelial A549 cells by IL-1β leads to a strong up-regulation of COX-2 protein expression and almost 100-fold increase of PGE2 generation. This cellular system has been employed to evaluate inhibitory potency of anti-inflammatory drugs, including COX inhibitors and was previously used by us to study the effect of α-T, γ-T and γ-CEHC on PGE2 formation (13, 20). […] Inhibition of PGE2 by γ-T, and γ-TE was also observed in the presence of exogenous AA, where after co-incubated with vitamin E forms and IL-1β, cells were incubated with fresh media containing 5 μM of AA for 5 min.

[4] = tested on: IL-1beta-stimulated PGE2 formation in A549 cells; test: IL-1beta-stimulated PGE2 formation with or without sesamin (Table 4); assay type: cell-based, human; details: IL-1beta 2 ng/ml, 8 h; 13′-COOH 2.5 uM, sesamin 1 uM
Method: Briefly, A549 cells were stimulated with IL-1beta (2 ng/ml) in the presence of DMSO (ctrl, 0.1%), control with sesamin (1 uM), 13′-COOH (structure 1) at 2.5 uM, 13′-COOH with sesamin (1 uM). Basal control was cells incubated with medium without IL-1beta. Eight hours later, media were collected and PGE2 was measured by ELISA.

[5] = tested on: A549 cells; test: Cell viability of confluent A549 cells (MTT); assay type: cell-based, human; details: 100% confluent cells, 1% FBS
[6] = tested on: A549 cells; test: Metabolites of vitamin E forms in A549 conditioned media (HPLC); assay type: in vitro ADME, human; details: 20 μM
Method: FIG. 3A illustrates that unconjugated long-chain carboxychromanols but not sulfated derivatives inhibited COX-2 activity in intact cells. […] Sulfated metabolites were the sum of 9′S, 11′S and 13′S, and unconjugated metabolites are the sum of 9′, 11′ and 13′. Conditioned media were obtained by incubation of A549 cells with γ-TE at 20 μM for 24, 48 and 72 h. Metabolites were extracted and measured using HPLC assay. The conditioned media were then used for the activity assay as described in FIG. 2A and 2B. Unsulfated/sulfated is the ratio of the sum of 9′, 11′ and 13′ to that of 9′S, 11′S and 13′S. All the results are expressed as Mean±SD. […]
Quantitation of vitamin E metabolites in conditioned media—Long-chain carboxychromanols and their sulfated counterparts were quantitated by a HPLC assay with fluorescent detection (17). […]
Extracted metabolites were separated using HPLC and detected by a Shimadzu RF-10AXL spectrofluorometric detector (Shimadzu, Columbia, Md.) with the excitation and emission wavelength at 292 nm and 327 nm, respectively. […] Long-chain metabolites were quantified using tocopherols as the external standards with a correction factor based on the linear relationship between fluorescent intensity and solvent content (17).

[7] = target: T3, 5-LOX (Homo sapiens, UniProt P09917); test: 5-LOX inhibition with purified human enzyme (Table 3); assay type: biochemical; details: mean±SEM
T3 sequence (P09917 1-674): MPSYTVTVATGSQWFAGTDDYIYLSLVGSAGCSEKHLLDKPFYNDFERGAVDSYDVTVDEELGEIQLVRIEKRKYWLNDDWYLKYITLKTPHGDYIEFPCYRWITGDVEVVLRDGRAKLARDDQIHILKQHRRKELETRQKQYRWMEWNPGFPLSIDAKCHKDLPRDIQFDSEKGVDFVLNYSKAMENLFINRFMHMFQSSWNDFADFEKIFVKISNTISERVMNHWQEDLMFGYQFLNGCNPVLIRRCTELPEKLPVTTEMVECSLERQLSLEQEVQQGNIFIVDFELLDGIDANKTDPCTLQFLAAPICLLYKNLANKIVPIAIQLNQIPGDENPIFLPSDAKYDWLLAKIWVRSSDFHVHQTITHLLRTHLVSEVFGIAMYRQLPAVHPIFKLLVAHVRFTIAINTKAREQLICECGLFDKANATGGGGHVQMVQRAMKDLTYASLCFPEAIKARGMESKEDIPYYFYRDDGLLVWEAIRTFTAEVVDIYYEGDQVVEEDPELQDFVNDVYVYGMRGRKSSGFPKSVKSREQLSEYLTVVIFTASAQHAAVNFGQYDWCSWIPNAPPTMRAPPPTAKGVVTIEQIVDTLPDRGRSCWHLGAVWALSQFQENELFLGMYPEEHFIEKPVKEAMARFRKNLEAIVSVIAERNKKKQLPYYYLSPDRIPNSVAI
Excerpt: Results are mean±SEM based on four or more independent experiments.

[8] = target: T2, COX-2; test: COX-2 inhibition with purified human enzyme (Table 3); assay type: biochemical; parameters: A549 cells were pre-treated with 0.5-1 ng/mL of IL-1β- for 6 hours to induce COX-2 expression; endogenous in cells; details: mean±SEM
Excerpt: Free radical biology & medicine 95, 190-199. Results are mean±SEM based on four or more independent experiments.

[9] = LC-MS analysis of fecal samples of mice fed δTE-13′; assay type: in vivo; details: mice fed with δTE-13′
Excerpt: FIG. 6. Detection of δTE-13′-1 in fecal samples.

inhibition of COX-1 ([1]; at 250 μM): did not significantly inhibit
IC50 COX-1 ([1]; purified enzyme, Not inhibit: 9′ at 20 μM, acetaminophen at 250 μM): Not inhibit*
inhibition of COX-2 [2]: did not significantly inhibit
SMILES: CC(=O)Nc1ccc(O)cc1 [Acetaminophen, reference compound]

SMILES: c1cc2c(cc1[C@H]1OC[C@H]3[C@@H]1CO[C@@H]3c1ccc3c(c1)OCO3)OCO2 [sesamin, reference compound]
effect on PGE2 generation ([3]; sesamin alone at 1 μM): did not affect
PGE2 [4]: 12.46 ± 1.4 ng/mL

SMILES: CC(C)=CCC/C(C)=C/CC/C(C)=C/CC[C@]1(C)CCc2c(C)c(O)c(C)c(C)c2O1 [α-TE, α-Tocotrienol]
inhibition of PGE2 formation ([3]; at 20 μM, A549 cells co-treated with IL-1β): 20%

SMILES: CC(C)=CCC/C(C)=C/CC/C(C)=C/CC[C@]1(C)CCc2cc(O)c(C)c(C)c2O1 [γ-TE, γ-tocotrienol]
effect of sesamin on the inhibitory potency on PGE2 ([3]; in the presence of 1 μM sesamin): moderately diminished
IC50 [3]: 10 µM
cell viability (MTT, cell morphology) ([5]; 20 μM): did not show significant effects
share of metabolites that are sulfated carboxychromanols ([6]; 72-h incubation): more than 85%
share of metabolites that are unconjugated carboxychromanols ([6]; first 24-h incubation): 90%

IC50 ([3]; Homo sapiens, A549, 5 min): 25 µM
IC50 [7]: > 50 µM
IC50 [8]: > 50 µM
SMILES: Cc1c(O)cc2c(c1C)OC(C)(CCCC(C)CCCC(C)CCCC(C)C)CC2 (centres unmarked) [γ-T]
cell viability (MTT, cell morphology) ([5]; 25-50 μM): did not show significant effects

IC50 ([3]; Homo sapiens, A549, 5 min): 10 µM
IC50 [7]: > 50 µM
IC50 [8]: > 50 µM
SMILES: Cc1cc(O)cc2c1OC(C)(CCCC(C)CCCC(C)CCCC(C)C)CC2 (centres unmarked) [δ-T]
cell viability (MTT, cell morphology) ([5]; 25-50 μM): did not show significant effects

formation in fecal samples [9]: detected
SMILES: C/C(=C\CCC1(C)CCc2cc(O)cc(C)c2O1)CC/C=C(\C)CCCC(C)C(=O)O (centres unmarked) [δTE-13′-1]
